Among the data in patent US10907197B2, “Probes for imaging huntingtin protein” (CHDI Foundation, Inc., priority 2014, dated 2021) are IC50 values, retold here.

As usually defined, the IC50 is the concentration needed to halve the response being measured. Higher therefore signals weaker potency in that assay.

T1 sequence (P42858 with tags, fused parts or gaps with the stated changes): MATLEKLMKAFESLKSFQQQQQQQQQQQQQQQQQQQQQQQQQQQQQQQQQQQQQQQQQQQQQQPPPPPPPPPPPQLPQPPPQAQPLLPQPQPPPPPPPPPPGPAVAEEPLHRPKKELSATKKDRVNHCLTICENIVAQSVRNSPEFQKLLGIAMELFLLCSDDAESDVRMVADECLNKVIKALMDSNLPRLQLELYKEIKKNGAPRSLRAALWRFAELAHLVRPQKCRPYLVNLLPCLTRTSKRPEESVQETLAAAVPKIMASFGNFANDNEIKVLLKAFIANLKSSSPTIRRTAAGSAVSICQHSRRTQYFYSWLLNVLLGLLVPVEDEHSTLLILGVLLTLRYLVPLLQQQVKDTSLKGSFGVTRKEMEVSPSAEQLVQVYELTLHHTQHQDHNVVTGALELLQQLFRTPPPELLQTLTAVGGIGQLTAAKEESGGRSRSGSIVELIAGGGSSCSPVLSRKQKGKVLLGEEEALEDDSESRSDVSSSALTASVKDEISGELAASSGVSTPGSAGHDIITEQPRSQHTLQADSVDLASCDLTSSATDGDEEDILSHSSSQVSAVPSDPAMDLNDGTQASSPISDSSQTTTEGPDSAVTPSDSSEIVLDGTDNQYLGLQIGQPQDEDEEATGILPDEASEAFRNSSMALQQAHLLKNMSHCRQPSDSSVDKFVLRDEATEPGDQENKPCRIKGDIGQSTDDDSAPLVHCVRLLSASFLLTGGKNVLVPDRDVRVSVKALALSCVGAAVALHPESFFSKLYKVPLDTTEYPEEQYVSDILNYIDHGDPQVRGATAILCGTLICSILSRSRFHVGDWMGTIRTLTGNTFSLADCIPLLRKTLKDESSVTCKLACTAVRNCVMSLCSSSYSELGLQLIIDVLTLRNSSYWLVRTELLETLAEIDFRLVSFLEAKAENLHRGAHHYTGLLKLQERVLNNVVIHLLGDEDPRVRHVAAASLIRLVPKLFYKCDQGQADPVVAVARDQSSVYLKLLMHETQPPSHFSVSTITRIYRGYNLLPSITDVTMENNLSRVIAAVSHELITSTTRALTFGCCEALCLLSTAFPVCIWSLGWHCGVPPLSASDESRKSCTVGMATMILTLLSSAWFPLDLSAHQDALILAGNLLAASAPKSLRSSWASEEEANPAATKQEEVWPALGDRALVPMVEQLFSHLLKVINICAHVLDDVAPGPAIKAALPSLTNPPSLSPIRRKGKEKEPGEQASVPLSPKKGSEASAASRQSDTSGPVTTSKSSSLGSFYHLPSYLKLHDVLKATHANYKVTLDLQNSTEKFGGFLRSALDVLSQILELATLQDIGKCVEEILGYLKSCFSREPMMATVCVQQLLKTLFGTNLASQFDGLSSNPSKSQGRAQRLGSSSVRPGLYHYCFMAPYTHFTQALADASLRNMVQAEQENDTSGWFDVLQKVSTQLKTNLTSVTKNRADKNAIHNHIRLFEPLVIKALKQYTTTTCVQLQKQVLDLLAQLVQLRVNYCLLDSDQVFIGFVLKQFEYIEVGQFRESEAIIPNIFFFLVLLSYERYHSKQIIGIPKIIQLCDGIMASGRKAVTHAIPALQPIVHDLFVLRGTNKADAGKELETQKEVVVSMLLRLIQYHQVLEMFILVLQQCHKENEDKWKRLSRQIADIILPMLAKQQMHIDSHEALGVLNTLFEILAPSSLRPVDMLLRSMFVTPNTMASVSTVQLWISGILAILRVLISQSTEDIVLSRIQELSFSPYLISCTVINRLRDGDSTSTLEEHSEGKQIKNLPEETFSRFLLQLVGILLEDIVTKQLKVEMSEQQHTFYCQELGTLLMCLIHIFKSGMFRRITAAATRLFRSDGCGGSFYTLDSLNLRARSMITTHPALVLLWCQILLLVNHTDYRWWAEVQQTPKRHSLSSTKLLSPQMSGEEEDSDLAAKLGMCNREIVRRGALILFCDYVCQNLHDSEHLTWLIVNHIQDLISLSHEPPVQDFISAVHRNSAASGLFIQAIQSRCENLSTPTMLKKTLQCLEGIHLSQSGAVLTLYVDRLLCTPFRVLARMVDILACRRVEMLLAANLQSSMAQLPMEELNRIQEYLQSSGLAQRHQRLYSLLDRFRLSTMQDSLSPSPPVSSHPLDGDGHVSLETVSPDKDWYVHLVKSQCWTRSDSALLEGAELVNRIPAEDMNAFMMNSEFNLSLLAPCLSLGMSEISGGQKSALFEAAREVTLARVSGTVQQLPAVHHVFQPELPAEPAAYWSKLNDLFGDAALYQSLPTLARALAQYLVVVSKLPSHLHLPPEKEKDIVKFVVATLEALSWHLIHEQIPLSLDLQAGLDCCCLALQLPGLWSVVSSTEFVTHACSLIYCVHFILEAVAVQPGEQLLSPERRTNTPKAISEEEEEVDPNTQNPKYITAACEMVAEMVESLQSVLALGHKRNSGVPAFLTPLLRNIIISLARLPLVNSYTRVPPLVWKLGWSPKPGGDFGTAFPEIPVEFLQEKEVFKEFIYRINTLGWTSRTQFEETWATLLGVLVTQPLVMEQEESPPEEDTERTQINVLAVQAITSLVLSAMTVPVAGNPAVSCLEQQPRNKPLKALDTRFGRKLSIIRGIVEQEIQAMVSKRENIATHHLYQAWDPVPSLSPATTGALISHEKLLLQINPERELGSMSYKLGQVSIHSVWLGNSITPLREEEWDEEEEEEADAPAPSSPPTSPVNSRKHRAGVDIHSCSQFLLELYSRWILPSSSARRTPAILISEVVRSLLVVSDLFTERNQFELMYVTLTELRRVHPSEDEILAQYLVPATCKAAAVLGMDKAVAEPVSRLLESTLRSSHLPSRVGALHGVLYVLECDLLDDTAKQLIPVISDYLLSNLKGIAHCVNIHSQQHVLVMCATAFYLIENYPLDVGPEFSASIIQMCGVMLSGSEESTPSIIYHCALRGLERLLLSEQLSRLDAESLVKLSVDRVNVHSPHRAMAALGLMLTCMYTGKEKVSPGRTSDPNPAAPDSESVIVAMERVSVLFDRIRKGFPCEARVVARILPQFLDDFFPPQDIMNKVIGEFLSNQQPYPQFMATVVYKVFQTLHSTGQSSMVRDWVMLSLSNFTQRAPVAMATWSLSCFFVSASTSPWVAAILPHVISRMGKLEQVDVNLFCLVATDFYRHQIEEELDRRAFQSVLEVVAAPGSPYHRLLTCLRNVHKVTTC

The assay addresses T1, Q46 protein aggregates (Homo sapiens, UniProt P42858, INS38QQQQQQQQQQQQQQQQQQQQQQQQQ).
T1 construct: 33 μM GST-Q46 was incubated with 150 μg/mL thrombin in assay buffer (150 mM NaCl, 50 mM Tris pH 8.0) and 2 mM CaCl2 for 16 hr at 37° C; fused on or other part: GST at the N-terminus
Nature of the assay: Q46 Radioligand Binding Assay (RBA). To be noted: displacement of 10 nM [3H3]MK-3328 from 5 μM Q46 protein aggregates, 60 min at 37° C. The protocol: Q46 Radioligand Binding Assay
For radioligand binding assays (RBA) GST-Q46 protein was generated based on a previous publication (Scherzinger et al. Cell, Vol. 90, 549-558, Aug. 8, 1997). For experiments 33 μM GST-Q46 was incubated with 150 μg/mL thrombin in assay buffer (150 mM NaCl, 50 mM Tris pH 8.0) and 2 mM CaCl2 for 16 hr at 37° C. Aggregated Q46 was pelleted by centrifugation for 5 min at 13,000 rpm in a bench top centrifuge and re-dissolved in the same volume of assay buffer. Test compounds were prepared by titration in DMSO at 11 concentrations from 33 μM to 1 nM. For the RBA, Q46 protein aggregates and test compounds were pre-incubated in assay buffer for 20 min at room temperature, in 140 μL/well in a 96-well plate (pp, round bottom). Then, ligand was added in 10 μL/well and incubated for 60 min at 37° C. Final assay concentrations were 1 μM to 30 pM test compound, 5 μM Q46 protein (equivalent monomer concentration) and 10 nM ligand [^3H3]MK-3328 (Harrision et al., ACS Med. Chem. Lett., 2 (2011), pp 498-502). Samples were transferred onto GF/B filter plates and washed 2× with 200 μL PBS using a Filtermate Harvester. After drying filter plates for 1 hr at 37° C., the back of the plates was sealed with foil and 30 μL/well scintillation fluid (Packard MicroScint 40) was added, incubated for incubated for 15 min in the dark and counted in a TopCount reader. […] IC50 values were determined with a sigmoidal inhibition model with four variables (top, bottom, slope, IC50) in a global fit using the normalized replicate data.
On to `COc1ccc2nc(-c3ncccc3Br)sc2c1` [2-(3-bromopyridin-2-yl)-6-methoxy-1,3-benzothiazole], for which the IC50 is less than 100 nM.

As for `Oc1ccc2nc(-c3ccncc3Br)sc2c1` [2-(3-bromopyridin-4-yl)-1,3-benzothiazol-6-ol], the IC50 was in the range of 100 to 500 nM.

For the compound `FCCOc1ccc2nc(-c3ccncc3Br)sc2c1` [2-(3-bromopyridin-4-yl)-6-(2-fluoroethoxy)-1,3-benzothiazole], the IC50 is less than 100 nM.

`COc1ccc2nc(-c3ccncc3Br)sc2c1` [2-(3-bromopyridin-4-yl)-6-methoxy-1,3-benzothiazole] showed a half-inhibitory concentration (IC50) of less than 100 nM.

`COc1ccc2nc(-c3ccncc3F)sc2c1` [2-(3-fluoropyridin-4-yl)-6-methoxy-1,3-benzothiazole] came in with an IC50 of less than 100 nM.

The compound `Cc1cccc(-c2nc3cc(N)ccc3o2)c1` [2-(3-methylphenyl)-1,3-benzoxazol-5-amine] had an IC50 of 100 to 500 nM.

In the case of `Cc1cccc(-c2nc3cc(N)cnc3o2)c1` [2-(3-methylphenyl)-[1,3]oxazolo[5,4-b]pyridin-6-amine], the half-maximal inhibitory concentration (IC50) is greater than 500 nM.

`COc1ccc2oc(-c3ncccc3C#N)cc2c1` [2-(5-methoxy-1-benzofuran-2-yl)pyridine-3-carbonitrile] showed an IC50 of less than 100 nM.

`COc1ccc2nc(-c3ccccc3C#N)sc2c1` [2-(6-methoxy-1,3-benzothiazol-2-yl)benzonitrile] registered a half-inhibitory concentration (IC50) of less than 100 nM.

The compound `COc1ccc2nc(-c3ncccc3C#N)sc2c1` [2-(6-methoxy-1,3-benzothiazol-2-yl)pyridine-3-carbonitrile] gave a half-maximal inhibitory concentration (IC50) of less than 100 nM.

Regarding `COc1ccc2nc(-c3ccccc3C#N)oc2c1` [2-(6-methoxy-1,3-benzoxazol-2-yl)benzonitrile], the IC50 was less than 100 nM.

In turn, `Nc1ccc2oc(-c3cccnc3)nc2c1` [2-(pyridin-3-yl)-1,3-benzoxazol-5-amine] had an IC50 greater than 500 nM.

In turn, `COc1ccc2oc(-c3cccc(CN(C)C)c3C#N)cc2c1` [2-[(dimethylamino)methyl]-6-(5-methoxy-1-benzofuran-2-yl)benzonitrile] displayed a concentration for half-maximal inhibition (IC50) of 100 to 500 nM.

In turn, `COc1ccc2oc(-c3cccc(Br)c3C#N)cc2c1` [2-bromo-6-(5-methoxy-1-benzofuran-2-yl)benzonitrile] gave an IC50 of less than 100 nM.

`COc1ncc2cc(-c3ccccc3C#N)oc2n1` [2-{2-methoxyfuro[2,3-d]pyrimidin-6-yl}benzonitrile] showed an IC50 of less than 100 nM.

The compound `N#Cc1ccccc1-c1nc2cc3c(cc2o1)OCO3` [2-{4,6,10-trioxa-12-azatricyclo[7.3.0.0^3,^7]dodeca-1(9),2,7,11-tetraen-11-yl}benzonitrile] returned a concentration for half-maximal inhibition (IC50) of less than 100 nM.

As to `N#Cc1ccccc1-c1cc2cc(Br)cnc2o1` [2-{5-bromofuro[2,3-b]pyridin-2-yl}benzonitrile], the 50% inhibitory concentration (IC50) is less than 100 nM.

Compound `COc1cnc2oc(-c3ccccc3C#N)cc2c1` [2-{5-methoxyfuro[2,3-b]pyridin-2-yl}benzonitrile] showed a half-inhibitory concentration (IC50) of less than 100 nM.

Turning to `COc1cc2cc(-c3ccccc3C#N)oc2cn1` [2-{5-methoxyfuro[2,3-c]pyridin-2-yl}benzonitrile], the concentration for half-maximal inhibition (IC50) is less than 100 nM.

As to `N#CC1=C(c2cc3cc(O)ccc3o2)N2CCN=C2S1` [3-(5-hydroxy-1-benzofuran-2-yl)-5H,6H-imidazo[2,1-b][1,3]thiazole-2-carbonitrile], the concentration for half-maximal inhibition (IC50) is less than 100 nM.

Turning to `COc1ccc2oc(C3=C(C#N)SC4=NCCN43)cc2c1` [3-(5-methoxy-1-benzofuran-2-yl)-5H,6H-imidazo[2,1-b][1,3]thiazole-2-carbonitrile], the IC50 is less than 100 nM.

`COc1ccc2nc(-c3cnccc3C#N)sc2c1` [3-(6-methoxy-1,3-benzothiazol-2-yl)pyridine-4-carbonitrile]: the IC50 is less than 100 nM.

As to `C#Cc1cnccc1-c1cc2cc(OC)ccc2o1` [3-ethynyl-4-(5-methoxy-1-benzofuran-2-yl)pyridine], the IC50 was less than 100 nM.

The compound `COc1ccc2oc(-c3ccncc3I)cc2c1` [3-iodo-4-(5-methoxy-1-benzofuran-2-yl)pyridine] displayed a half-maximal inhibitory concentration (IC50) of 100 to 500 nM.

`N#Cc1cnccc1-c1nc2ccccc2s1` [4-(1,3-benzothiazol-2-yl)pyridine-3-carbonitrile] showed an IC50 greater than 500 nM.

The compound `COc1ccc2oc(-c3ccncc3)c(Br)c2c1` [4-(3-bromo-5-methoxy-1-benzofuran-2-yl)pyridine] yielded an IC50 of less than 100 nM.

The compound `N#Cc1cnccc1-c1cc2cc(O)ccc2o1` [4-(5-hydroxy-1-benzofuran-2-yl)pyridine-3-carbonitrile] showed a 50% inhibitory concentration (IC50) of less than 100 nM.

Compound `COc1ccc2sc(-c3ccncc3C#N)nc2c1` [4-(5-methoxy-1,3-benzothiazol-2-yl)pyridine-3-carbonitrile] returned a half-inhibitory concentration (IC50) of 100 to 500 nM.

Compound `COc1ccc2oc(-c3cccc4[nH]ncc34)cc2c1` [4-(5-methoxy-1-benzofuran-2-yl)-1H-indazole] returned an IC50 of less than 100 nM.

As to `COc1ccc2oc(-c3ccncc3C)cc2c1` [4-(5-methoxy-1-benzofuran-2-yl)-3-methylpyridine], the 50% inhibitory concentration (IC50) lay within 100 to 500 nM.

Regarding `COc1ccc2oc(-c3ccncc3C#N)cc2c1` [4-(5-methoxy-1-benzofuran-2-yl)pyridine-3-carbonitrile], the IC50 was less than 100 nM.

Consider `COc1ccc2oc(-c3ccncc3C#N)c(C)c2c1` [4-(5-methoxy-3-methyl-1-benzofuran-2-yl)pyridine-3-carbonitrile], for which the IC50 was less than 100 nM.

Turning to `CNc1cnccc1-c1nc2ccc(OC)cc2s1` [4-(6-methoxy-1,3-benzothiazol-2-yl)-N-methylpyridin-3-amine], the IC50 lay in the range of 100 to 500 nM.

Consider `COc1ccc2nc(-c3ccc(C#N)cc3)sc2c1` [4-(6-methoxy-1,3-benzothiazol-2-yl)benzonitrile], for which the IC50 is less than 100 nM.

`COc1ccc2nc(-c3ccnc(C#N)c3)sc2c1` [4-(6-methoxy-1,3-benzothiazol-2-yl)pyridine-2-carbonitrile] had a half-maximal inhibitory concentration (IC50) of less than 100 nM.

With `COc1ccc2nc(-c3ccncc3C#N)sc2c1` [4-(6-methoxy-1,3-benzothiazol-2-yl)pyridine-3-carbonitrile], the 50% inhibitory concentration (IC50) was 100 to 500 nM.

As for `COc1ccc2nc(-c3ccncc3C#N)oc2c1` [4-(6-methoxy-1,3-benzoxazol-2-yl)pyridine-3-carbonitrile], the IC50 was less than 100 nM.

`COc1ccc2nc(-c3ccncc3C#N)[nH]c2c1` [4-(6-methoxy-1H-1,3-benzodiazol-2-yl)pyridine-3-carbonitrile] registered a concentration for half-maximal inhibition (IC50) greater than 500 nM.

With `COc1ccc2cc(-c3ccncc3C#N)ccc2c1` [4-(6-methoxynaphthalen-2-yl)pyridine-3-carbonitrile], the IC50 was 100 to 500 nM.

With `COc1ccc2nc(-c3ccncc3C#N)ccc2c1` [4-(6-methoxyquinolin-2-yl)pyridine-3-carbonitrile], the 50% inhibitory concentration (IC50) lay within 100 to 500 nM.

In turn, `N#Cc1cnccc1-c1cc2cc(OCCF)ccc2o1` [4-[5-(2-fluoroethoxy)-1-benzofuran-2-yl]pyridine-3-carbonitrile] displayed an IC50 of less than 100 nM.

In the case of `N#Cc1cnccc1-c1cc2cc(OCCO)ccc2o1` [4-[5-(2-hydroxyethoxy)-1-benzofuran-2-yl]pyridine-3-carbonitrile], the IC50 is 100 to 500 nM.

`COCCOc1ccc2oc(-c3ccncc3C#N)cc2c1` [4-[5-(2-methoxyethoxy)-1-benzofuran-2-yl]pyridine-3-carbonitrile] gave a 50% inhibitory concentration (IC50) of less than 100 nM.

Compound `COCOc1ccc2oc(-c3cn(C)nc3C#N)cc2c1` [4-[5-(methoxymethoxy)-1-benzofuran-2-yl]-1-methyl-1H-pyrazole-3-carbonitrile] gave a half-inhibitory concentration (IC50) of less than 100 nM.

In the case of `COCOc1ccc2oc(-c3ccncc3C#N)cc2c1` [4-[5-(methoxymethoxy)-1-benzofuran-2-yl]pyridine-3-carbonitrile], the half-inhibitory concentration (IC50) was less than 100 nM.

`N#Cc1cnccc1-c1nc2ccc(OCCF)cc2s1` [4-[6-(2-fluoroethoxy)-1,3-benzothiazol-2-yl]pyridine-3-carbonitrile] gave an IC50 of less than 100 nM.

`CN(C)c1ccc2nc(-c3ccncc3C#N)sc2c1` [4-[6-(dimethylamino)-1,3-benzothiazol-2-yl]pyridine-3-carbonitrile] yielded a 50% inhibitory concentration (IC50) of less than 100 nM.

For the compound `N#Cc1cnccc1-c1nc2ccc(C(F)(F)F)cc2s1` [4-[6-(trifluoromethyl)-1,3-benzothiazol-2-yl]pyridine-3-carbonitrile], the half-maximal inhibitory concentration (IC50) is less than 100 nM.

In turn, `COc1ccc2oc(-c3cc(CN(C)C)ccc3C#N)cc2c1` [4-[(dimethylamino)methyl]-2-(5-methoxy-1-benzofuran-2-yl)benzonitrile] gave an IC50 of less than 100 nM.

Compound `COc1ccc2oc(-c3ncnc(I)c3C#N)cc2c1` [4-iodo-6-(5-methoxy-1-benzofuran-2-yl)pyrimidine-5-carbonitrile] registered an IC50 greater than 500 nM.

`CN(CCO)c1ccc2oc(-c3ccncc3C#N)cc2c1` [4-{5-[(2-hydroxyethyl)(methyl)amino]-1-benzofuran-2-yl}pyridine-3-carbonitrile]: the concentration for half-maximal inhibition (IC50) is less than 100 nM.
